# US20230111310A1, “CARBOXYLIC ACID DERIVATIVE-SUBSTITUTED IMINO ARYL COMPOUND, PREPARATION METHOD THEREFOR, HERBICIDAL COMPOSITION AND USE THEREOF” (Qingdao Kingagroot Chemical Compound Co., Ltd., priority 2020, published 2023)
# What was measured:
# Experiment in all cases: Weeding effect in post-emergence stage
# Type in all cases: in vivo
# Abutilon theophrasti = settings: for Weeding effect in post-emergence stage, Abutilon theophrasti (level): fresh weight control rate level; for Weeding effect in post-emergence stage, Abutilon theophrasti: level of fresh weight growth control rate
# How it was run: (§1)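 Read-out is growth control rate, counted 3 weeks post-spray and averaged over three repeats. Greenhouse plants at the 2-3 leaf stage received spray-tower application at 500, 250, 125, 60, 30, 15 or 7.5 g/ha, with methyl oleate EC (1.5 liter/ha) and Tween 80 added.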
# Alopecurus japonicus = settings: for Weeding effect in post-emergence stage, Alopecurus japonicus (level): fresh weight control rate level; for Weeding effect in post-emergence stage, Alopecurus japonicus: level of fresh weight growth control rate
# How it was run: as §1
# Digitaria sanguinalis = settings: for Weeding effect in post-emergence stage, Digitaria sanguinalis (level): fresh weight control rate level; for Weeding effect in post-emergence stage, Digitaria sanguinalis: level of fresh weight growth control rate
# How it was run: as §1
# Eleusine indica = settings: for Weeding effect in post-emergence stage, Eleusine indica (level): fresh weight control rate level; for Weeding effect in post-emergence stage, Eleusine indica: level of fresh weight growth control rate
# How it was run: as §1
# Setaria viridis = settings: for Weeding effect in post-emergence stage, Setaria viridis (level): fresh weight control rate level; for Weeding effect in post-emergence stage, Setaria viridis: level of fresh weight growth control rate
# How it was run: as §1
# Echinochloa crusgalli = settings: for Weeding effect in post-emergence stage, Echinochloa crusgalli (level): fresh weight control rate level; for Weeding effect in post-emergence stage, Echinochloa crusgalli: level of fresh weight growth control rate
# How it was run: as §1
Compound,"Weeding effect in post-emergence stage, Abutilon theophrasti (Abutilon theophrasti; Dose 15 g/ha)","Weeding effect in post-emergence stage, Alopecurus japonicus (Alopecurus japonicus; Dose 15 g/ha)","Weeding effect in post-emergence stage, Digitaria sanguinalis (Digitaria sanguinalis; Dose 15 g/ha)","Weeding effect in post-emergence stage, Eleusine indica (Eleusine indica; Dose 15 g/ha)","Weeding effect in post-emergence stage, Setaria viridis (Setaria viridis; Dose 15 g/ha)","Weeding effect in post-emergence stage, Echinochloa crusgalli (Echinochloa crusgalli; Dose 15 g/ha)",further results
COC(=O)C(C)O/N=C/c1cc(-n2c(=O)cc(C(F)(F)F)n(C)c2=S)c(F)cc1C#N (racemic) [Compound 396],–,–,–,–,–,–,"Weeding effect in post-emergence stage, Abutilon theophrasti (level) (Abutilon theophrasti; Dose 60 g/ha): 5 (Level 5: growth control rate is above 85%); Weeding effect in post-emergence stage, Alopecurus japonicus (level) (Alopecurus japonicus; Dose 60 g/ha): 5 (Level 5: growth control rate is above 85%); Weeding effect in post-emergence stage, Digitaria sanguinalis (level) (Digitaria sanguinalis; Dose 60 g/ha): 5 (Level 5: growth control rate is above 85%); Weeding effect in post-emergence stage, Eleusine indica (level) (Eleusine indica; Dose 60 g/ha): 5 (Level 5: growth control rate is above 85%); Weeding effect in post-emergence stage, Setaria viridis (level) (Setaria viridis; Dose 60 g/ha): 5 (Level 5: growth control rate is above 85%); Weeding effect in post-emergence stage, Echinochloa crusgalli (level) (Echinochloa crusgalli; Dose 60 g/ha): 5 (Level 5: growth control rate is above 85%)"
COC(=O)C(CC(C)C)O/N=C/c1cc(-n2c(=O)cc(C(F)(F)F)n(C)c2=O)c(F)cc1Cl (racemic) [Compound 455],–,–,–,–,–,–,"Weeding effect in post-emergence stage, Abutilon theophrasti (level) (Abutilon theophrasti; Dose 15 g/ha): 5 (Level 5: growth control rate is above 85%); Weeding effect in post-emergence stage, Alopecurus japonicus (level) (Alopecurus japonicus; Dose 15 g/ha): 5 (Level 5: growth control rate is above 85%); Weeding effect in post-emergence stage, Digitaria sanguinalis (level) (Digitaria sanguinalis; Dose 15 g/ha): 5 (Level 5: growth control rate is above 85%); Weeding effect in post-emergence stage, Eleusine indica (level) (Eleusine indica; Dose 15 g/ha): 5 (Level 5: growth control rate is above 85%); Weeding effect in post-emergence stage, Setaria viridis (level) (Setaria viridis; Dose 15 g/ha): 5 (Level 5: growth control rate is above 85%); Weeding effect in post-emergence stage, Echinochloa crusgalli (level) (Echinochloa crusgalli; Dose 15 g/ha): 5 (Level 5: growth control rate is above 85%)"
COC(=O)C(O/N=C/c1cc(-n2c(=O)cc(C(F)(F)F)n(C)c2=O)c(F)cc1Cl)C1CC1 (racemic) [Compound 456],–,–,–,–,–,–,"Weeding effect in post-emergence stage, Abutilon theophrasti (level) (Abutilon theophrasti; Dose 30 g/ha): 5 (Level 5: growth control rate is above 85%); Weeding effect in post-emergence stage, Alopecurus japonicus (level) (Alopecurus japonicus; Dose 30 g/ha): 5 (Level 5: growth control rate is above 85%); Weeding effect in post-emergence stage, Digitaria sanguinalis (level) (Digitaria sanguinalis; Dose 30 g/ha): 5 (Level 5: growth control rate is above 85%); Weeding effect in post-emergence stage, Eleusine indica (level) (Eleusine indica; Dose 30 g/ha): 5 (Level 5: growth control rate is above 85%); Weeding effect in post-emergence stage, Setaria viridis (level) (Setaria viridis; Dose 30 g/ha): 5 (Level 5: growth control rate is above 85%); Weeding effect in post-emergence stage, Echinochloa crusgalli (level) (Echinochloa crusgalli; Dose 30 g/ha): 5 (Level 5: growth control rate is above 85%)"
COC(=O)C(CC1CC1)O/N=C/c1cc(-n2c(=O)cc(C(F)(F)F)n(C)c2=O)c(F)cc1Cl (racemic) [Compound 462],–,–,–,–,–,–,"Weeding effect in post-emergence stage, Abutilon theophrasti (level) (Abutilon theophrasti; Dose 15 g/ha): 5 (Level 5: growth control rate is above 85%); Weeding effect in post-emergence stage, Alopecurus japonicus (level) (Alopecurus japonicus; Dose 15 g/ha): 5 (Level 5: growth control rate is above 85%); Weeding effect in post-emergence stage, Digitaria sanguinalis (level) (Digitaria sanguinalis; Dose 15 g/ha): 5 (Level 5: growth control rate is above 85%); Weeding effect in post-emergence stage, Eleusine indica (level) (Eleusine indica; Dose 15 g/ha): 5 (Level 5: growth control rate is above 85%); Weeding effect in post-emergence stage, Setaria viridis (level) (Setaria viridis; Dose 15 g/ha): 5 (Level 5: growth control rate is above 85%); Weeding effect in post-emergence stage, Echinochloa crusgalli (level) (Echinochloa crusgalli; Dose 15 g/ha): 5 (Level 5: growth control rate is above 85%)"
COC(=O)C(CF)O/N=C/c1cc(-n2c(=O)cc(C(F)(F)F)n(C)c2=O)c(F)cc1Cl (racemic) [Compound 463],–,–,–,–,–,–,"Weeding effect in post-emergence stage, Abutilon theophrasti (level) (Abutilon theophrasti; Dose 15 g/ha): 5 (Level 5: growth control rate is above 85%); Weeding effect in post-emergence stage, Alopecurus japonicus (level) (Alopecurus japonicus; Dose 15 g/ha): 5 (Level 5: growth control rate is above 85%); Weeding effect in post-emergence stage, Digitaria sanguinalis (level) (Digitaria sanguinalis; Dose 15 g/ha): 5 (Level 5: growth control rate is above 85%); Weeding effect in post-emergence stage, Eleusine indica (level) (Eleusine indica; Dose 15 g/ha): 5 (Level 5: growth control rate is above 85%); Weeding effect in post-emergence stage, Setaria viridis (level) (Setaria viridis; Dose 15 g/ha): 5 (Level 5: growth control rate is above 85%); Weeding effect in post-emergence stage, Echinochloa crusgalli (level) (Echinochloa crusgalli; Dose 15 g/ha): 5 (Level 5: growth control rate is above 85%)"
COC(=O)C(Cc1ccccc1)O/N=C/c1cc(-n2c(=O)cc(C(F)(F)F)n(C)c2=O)c(F)cc1Cl (racemic) [Compound 469],–,–,–,–,–,–,"Weeding effect in post-emergence stage, Abutilon theophrasti (level) (Abutilon theophrasti; Dose 15 g/ha): 5 (Level 5: growth control rate is above 85%); Weeding effect in post-emergence stage, Alopecurus japonicus (level) (Alopecurus japonicus; Dose 15 g/ha): 5 (Level 5: growth control rate is above 85%); Weeding effect in post-emergence stage, Digitaria sanguinalis (level) (Digitaria sanguinalis; Dose 15 g/ha): 5 (Level 5: growth control rate is above 85%); Weeding effect in post-emergence stage, Eleusine indica (level) (Eleusine indica; Dose 15 g/ha): 5 (Level 5: growth control rate is above 85%); Weeding effect in post-emergence stage, Setaria viridis (level) (Setaria viridis; Dose 15 g/ha): 5 (Level 5: growth control rate is above 85%); Weeding effect in post-emergence stage, Echinochloa crusgalli (level) (Echinochloa crusgalli; Dose 15 g/ha): 5 (Level 5: growth control rate is above 85%)"
COC(=O)C(C)O/N=C/c1cc(-n2c(=O)c(C)c(C(F)(F)F)n(C)c2=O)c(F)cc1Cl (racemic) [Compound 473],–,–,–,–,–,–,"Weeding effect in post-emergence stage, Abutilon theophrasti (level) (Abutilon theophrasti; Dose 30 g/ha): 5 (Level 5: growth control rate is above 85%); Weeding effect in post-emergence stage, Alopecurus japonicus (level) (Alopecurus japonicus; Dose 30 g/ha): 5 (Level 5: growth control rate is above 85%); Weeding effect in post-emergence stage, Digitaria sanguinalis (level) (Digitaria sanguinalis; Dose 30 g/ha): 5 (Level 5: growth control rate is above 85%); Weeding effect in post-emergence stage, Eleusine indica (level) (Eleusine indica; Dose 30 g/ha): 5 (Level 5: growth control rate is above 85%); Weeding effect in post-emergence stage, Setaria viridis (level) (Setaria viridis; Dose 30 g/ha): 5 (Level 5: growth control rate is above 85%); Weeding effect in post-emergence stage, Echinochloa crusgalli (level) (Echinochloa crusgalli; Dose 30 g/ha): 5 (Level 5: growth control rate is above 85%)"
CCOC(=O)[C@@H](C)O/N=C/c1cc(-n2c(=O)n(C)c(=S)n(C)c2=O)c(F)cc1Cl [3(R)],5 (Level 5: growth control rate is above 85%),4 (Level 4: growth control rate is greater than or equal to 60% and less than 85%),5 (Level 5: growth control rate is above 85%),5 (Level 5: growth control rate is above 85%),5 (Level 5: growth control rate is above 85%),5 (Level 5: growth control rate is above 85%),–
CCCOC(=O)[C@@H](C)O/N=C/c1cc(-n2c(=O)n(C)c(=S)n(C)c2=O)c(F)cc1Cl [4(R)],5 (Level 5: growth control rate is above 85%),5 (Level 5: growth control rate is above 85%),5 (Level 5: growth control rate is above 85%),5 (Level 5: growth control rate is above 85%),5 (Level 5: growth control rate is above 85%),5 (Level 5: growth control rate is above 85%),–
CC(C)OC(=O)[C@@H](C)O/N=C/c1cc(-n2c(=O)n(C)c(=S)n(C)c2=O)c(F)cc1Cl [5(R)],5 (Level 5: growth control rate is above 85%),5 (Level 5: growth control rate is above 85%),5 (Level 5: growth control rate is above 85%),5 (Level 5: growth control rate is above 85%),5 (Level 5: growth control rate is above 85%),5 (Level 5: growth control rate is above 85%),–
C=CCCOC(=O)[C@@H](C)O/N=C/c1cc(-n2c(=O)n(C)c(=S)n(C)c2=O)c(F)cc1Cl [6(R)],5 (Level 5: growth control rate is above 85%),5 (Level 5: growth control rate is above 85%),5 (Level 5: growth control rate is above 85%),5 (Level 5: growth control rate is above 85%),5 (Level 5: growth control rate is above 85%),5 (Level 5: growth control rate is above 85%),–
C[C@@H](O/N=C/c1cc(-n2c(=O)n(C)c(=S)n(C)c2=O)c(F)cc1Cl)C(=O)OCC1CC1 [9(R)],5 (Level 5: growth control rate is above 85%),5 (Level 5: growth control rate is above 85%),5 (Level 5: growth control rate is above 85%),5 (Level 5: growth control rate is above 85%),5 (Level 5: growth control rate is above 85%),5 (Level 5: growth control rate is above 85%),–
C[C@@H](O/N=C/c1cc(-n2c(=O)n(C)c(=S)n(C)c2=O)c(F)cc1Cl)C(=O)OCCF [10(R)],5 (Level 5: growth control rate is above 85%),5 (Level 5: growth control rate is above 85%),5 (Level 5: growth control rate is above 85%),5 (Level 5: growth control rate is above 85%),5 (Level 5: growth control rate is above 85%),5 (Level 5: growth control rate is above 85%),–
C[C@@H](O/N=C/c1cc(-n2c(=O)n(C)c(=S)n(C)c2=O)c(F)cc1Cl)C(=O)OCCCF [11(R)],5 (Level 5: growth control rate is above 85%),5 (Level 5: growth control rate is above 85%),5 (Level 5: growth control rate is above 85%),5 (Level 5: growth control rate is above 85%),5 (Level 5: growth control rate is above 85%),5 (Level 5: growth control rate is above 85%),–
C[C@@H](O/N=C/c1cc(-n2c(=O)n(C)c(=S)n(C)c2=O)c(F)cc1Cl)C(=O)OCCCC(F)(F)F [12(R)],5 (Level 5: growth control rate is above 85%),5 (Level 5: growth control rate is above 85%),5 (Level 5: growth control rate is above 85%),5 (Level 5: growth control rate is above 85%),5 (Level 5: growth control rate is above 85%),5 (Level 5: growth control rate is above 85%),–
